Patent US20230174608A1, “Polypeptide Derivative Having Dual Receptor Agonistic Action and Use Thereof” (TIANJIN INSTITUTE OF PHARMACEUTICAL RESEARCH CO., LTD., priority 2020, published 2023)
Marks after values point to notes of the source that are not given here. Where a SMILES comes first, the peptide text is derived from it.

How the values were obtained:
GLP-1R = biological target: T1, GLP-1R (Homo sapiens, UniProt P43220); assay: GLP-1 receptor-mediated cAMP production in vitro; assay type: cell-based; details: HEK293 cell line stably expressing GLP-1R
T1 construct: expressed in transfected cells
How it was run: (§1)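 HEK293 cells stably expressing human GLP-1R or GCGR are stimulated with compound for 30 min in the dark in serum-free medium with 0.5 mM IBMX, with test dilutions spanning 1 μM down to 10^−3 nM. cAMP is detected after a 60 min room-temperature reaction as the 665/615 nm ratio.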

GCGR = biological target: T2, GCGR (Homo sapiens, UniProt P47871); assay: GC receptor-mediated cAMP production in vitro; assay type: cell-based; details: HEK293 cell line stably expressing GCGR
T2 construct: expressed in transfected cells
How it was run: as §1

[1] = system: glucose loaded normal mice; assay: Glucose loading test on normal mice after single administration; assay type: in vivo, Kunming mice; details: for Blood glucose reduction rate (%) / Blood glucose level after glucose loading / Inhibition of the rise of blood glucose after glucose loading (in words): 30 nmol/kg single dose; for Blood glucose reduction rate (%): after glucose loading, versus model control group; for Blood glucose level after glucose loading: glucose 2.5 g/kg intragastric 60 min after administration, measured 30 min after loading; for Blood glucose level after glucose loading / Fasting blood glucose level: n=5; for Inhibition of the rise of blood glucose after glucose loading (in words): normal mice; for Fasting blood glucose level: normal mice fasted 6 h, 30 nmol/kg group
Experimental: The hypoglycemic action of each compound of Example 1 was assessed by a glucose loading test on normal mice after single administration.
Method: Kunming mice (male, with a weight of 20-22 g) were acclimated in a barrier environment animal room for 3 days, divided into a blank control group, a model control group, a positive control group, and test compound groups, 5 mice in each group, and fasted for 6 h. Saline was administered to each mouse in the blank control group and the model control group, the compounds and a positive control drug were respectively administered to each mouse in the test compound groups and the positive control group at a dose of 30 nmol/kg, and the positive control drug was semaglutide. 60 min after administration, glucose was intragastrically administered to each mouse in the model control group, the positive control group, and the test compound groups at a dose of 2.5 g/kg (0.01 mL·g^−1 weight), distilled water was administered to each mouse in the blank control group, and blood glucose levels were determined 30 min after glucose loading.

[2] = system: diet-induced obesity (DIO) mice; assay: Obese (DIO) model mice, 23 days of successive administration; assay type: in vivo, C57BL/6J Gpt mice; details: for Fasting blood glucose (mmol/L) before the last administration: fasted 16 h; for Fasting blood glucose (mmol/L) before the last administration / TC (total cholesterol) / TG (triglycerides): n=5; for Weight decreasing rate: 30 nmol/kg s.c. every day, without fasting before the last administration compared to day 1; for Examination of liver pathological section: HE stain, 2 animals; for TC (total cholesterol) / TG (triglycerides): after 23 days of administration
From the text: C57BL/6J Gpt mice (purchased from GemPharmatech (Jiangsu) Co., Ltd.) (6-8-week-old) were fed with H10060 high-fat diet (purchased from Beijing HFK Bioscience Co., Ltd.) to obtain diet-induced obesity (DIO) models, mice in a blank control group (n=5) were fed with standard diets, and all the mice were fed for 11 weeks after being purchased. One day before the first administration, the mice in the model group were randomly divided into 5 groups according to their weights (within a range of 39.5-49.5 g), i.e., a model control group, a positive control group, and test compound groups (dgc005, dgc016, and dgc020), respectively, 5 mice in each group, which were administered every day by subcutaneous injection. Saline was subcutaneously injected in the blank control group and the model control group every day. The administration was performed for 23 days. The positive control drug and the test compounds were administered at a dose of 30 nmol/kg, and the administration volume for each group was 0.005 mL/g weight. The mice were weighed before each administration, and 72-h food intake was weighed every three days. The mice fasted for 16 h before the last administration, fasting blood glucose levels were determined, blood was sampled from the orbital venous plexus to determine triglycerides and total cholesterol, and the liver was taken out for pathological section observation.
The liver of each C576L/6 mouse in the groups was fixed with 12% formaldehyde and prepared into a specimen, and the tissue block was repaired, dehydrated with graded alcohol, embedded in paraffin, stained with HE, and examined under a light microscope.

[3] = system: diet-induced obesity (DIO) mice; assay: DIO mice, weight and blood glucose after multiple administrations at different doses; assay type: in vivo, C57BL/6N mice; details: for Fasting blood glucose (mmol/L) before the last administration / Blood glucose level (mmol/L) 0.5 h after glucose loading / Glycemic load reduction rate: Day 22; for Fasting blood glucose (mmol/L) before the last administration: fasted 16 h; for Blood glucose level (mmol/L) 0.5 h after glucose loading: glucose 1 g/kg intragastric 30 min after administration; for Glycemic load reduction rate: versus model control group; for Reduction rate of weight without fasting on day 21 compared to day 0: n=5
From the text: 40 C57BL/6N mice were purchased from Beijing Vital River Laboratory Animal Technology Co., Ltd. Mice in a model group (n=35) were fed with H10060 high-fat diets to obtain diet-induced obesity (DIO) models, mice in a blank control group (n=5) were fed with standard diets, and all the mice were fed for 36 weeks. On the day of the first administration, the mice in the model group were randomly divided into 7 groups according to their weights (within a range of 45-60 g), i.e., a model control group, positive control groups (semaglutide at doses of 10 nmol/kg and 30 nmol/kg, respectively), and test compound groups (dgc005 and dgc016 at doses of 10 nmol/kg and 30 nmol/kg, respectively), 5 mice in each group. The positive control drug and the test compounds were respectively subcutaneously injected into each mouse in the positive control groups and the test compound groups every day, saline was subcutaneously injected into each mouse in the blank control group and the model control group, and the administration was performed for 22 days (the administration volume for each group was 0.005 mL/g weight). The mice were weighed before each administration, and 72-h food intake was weighed every three days. The mice fasted for 16 h before the last administration, and 30 min after administration, a glucose solution (1 g/kg, the administration volume was 0.01 mL/g weight) was intragastrically administered to each mouse for glucose tolerance test. Blood glucose levels were determined 0.5 h after glucose loading.

[4] = day 4 of administration, 30 nmol/kg s.c. daily
[5] = day 7 of administration, 30 nmol/kg s.c. daily
[6] = day 10 of administration, 30 nmol/kg s.c. daily
[7] = day 13 of administration, 30 nmol/kg s.c. daily

T1 sequence (P43220 24-463, species assumed): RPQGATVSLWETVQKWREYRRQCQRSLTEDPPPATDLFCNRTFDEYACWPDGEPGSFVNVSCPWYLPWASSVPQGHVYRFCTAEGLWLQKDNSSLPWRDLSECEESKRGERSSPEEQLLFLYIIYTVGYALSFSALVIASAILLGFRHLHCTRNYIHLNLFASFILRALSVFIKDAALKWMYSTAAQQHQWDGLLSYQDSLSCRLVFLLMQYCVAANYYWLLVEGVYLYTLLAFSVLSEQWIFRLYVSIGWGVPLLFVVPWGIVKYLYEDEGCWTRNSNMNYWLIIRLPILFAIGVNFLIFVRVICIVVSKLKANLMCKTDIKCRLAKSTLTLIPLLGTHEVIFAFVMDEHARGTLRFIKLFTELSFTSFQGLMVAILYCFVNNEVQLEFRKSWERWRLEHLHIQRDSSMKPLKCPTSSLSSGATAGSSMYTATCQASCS
T2 sequence (P47871 26-477, species assumed): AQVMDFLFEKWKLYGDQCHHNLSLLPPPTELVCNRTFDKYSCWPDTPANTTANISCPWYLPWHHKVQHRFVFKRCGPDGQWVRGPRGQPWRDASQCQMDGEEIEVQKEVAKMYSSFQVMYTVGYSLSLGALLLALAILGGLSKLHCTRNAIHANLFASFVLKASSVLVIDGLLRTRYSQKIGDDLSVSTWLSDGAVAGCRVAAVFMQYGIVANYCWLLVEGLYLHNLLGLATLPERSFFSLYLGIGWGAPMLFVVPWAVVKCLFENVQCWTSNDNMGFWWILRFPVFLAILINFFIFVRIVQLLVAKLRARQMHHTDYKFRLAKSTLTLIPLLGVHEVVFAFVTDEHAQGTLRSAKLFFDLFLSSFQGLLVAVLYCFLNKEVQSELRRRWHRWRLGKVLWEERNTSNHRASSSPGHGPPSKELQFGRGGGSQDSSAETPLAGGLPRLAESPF

CCCCCCCCCCCCCCCC(=O)N[C@@H](CCC(=O)N[C@@H](CCC(=O)NCCCC[C@H](NC(=O)[C@H](C)NC(=O)[C@H](C)NC(=O)[C@H](CCCNC(=N)N)NC(=O)[C@H](CCC(=O)O)NC(=O)[C@H](CCC(=O)O)NC(=O)[C@H](CC(C)C)NC(=O)[C@H](Cc1ccc(O)cc1)NC(=O)[C@H](CCCCN)NC(=O)[C@H](CO)NC(=O)[C@H](Cc1ccc(O)cc1)NC(=O)[C@H](CC(=O)O)NC(=O)[C@H](CO)NC(=O)[C@@H](NC(=O)[C@H](Cc1ccccc1)NC(=O)[C@@H](NC(=O)CNC(=O)[C@H](CCC(N)=O)NC(=O)C(C)(C)NC(=O)[C@@H](N)Cc1c[nH]cn1)[C@@H](C)O)[C@@H](C)O)C(=O)N[C@@H](CCC(=O)O)C(=O)N[C@@H](Cc1ccccc1)C(=O)N[C@H](C(=O)N[C@@H](C)C(=O)N[C@@H](Cc1c[nH]c2ccccc12)C(=O)N[C@@H](CC(C)C)C(=O)N[C@@H](CCC(=O)O)C(=O)NCC(=O)NCC(N)=O)[C@@H](C)CC)C(=O)O)C(=O)O [dgc016] (HELM PEPTIDE1{H.[Aib].Q.G.T.F.T.S.D.Y.S.K.Y.L.E.E.R.A.A.K.E.F.I.A.W.L.E.G.G.[am]}|PEPTIDE2{[CCCCCCCCCCCCCCCC(=O)[*:2]].[gGlu].[gGlu]}$PEPTIDE1,PEPTIDE2,20:R3-3:R2$$$V2.0; N-terminus assumed)
EC50 (GLP-1R): 1.23 nM
EC50 (GCGR): 0.342 nM
Blood glucose reduction rate (%) [1]: 59.88%
Blood glucose level after glucose loading [1]: 6.82 ± 1.78**^ mmol/L
Inhibition of the rise of blood glucose after glucose loading (in words) [1]: equivalent to that of the positive control drug
Fasting blood glucose level [1]: 3.66 ± 0.77 mmol/L
Fasting blood glucose (mmol/L) before the last administration ([2]; 30 nmol/kg s.c. daily, 23 days): 4.18 ± 0.40 mmol/L
Weight decreasing rate [2]: 29.3%
Effect on triglycerides (in words) ([2]; 23 days, 30 nmol/kg s.c. daily): has a triglyceride reduction action
Examination of liver pathological section ([2]; 23 days, 30 nmol/kg s.c. daily): no obvious pathological changes are seen in portal areas and interstitium
TC (total cholesterol) ([2]; 30 nmol/kg s.c. daily): 3.32 ± 0.73 ^ mmol/L
TG (triglycerides) ([2]; 30 nmol/kg s.c. daily): 0.75 ± 0.10**^ΔΔ mmol/L
72-h food intake [2, 4]: 3.30 g/mouse
72-h food intake [2, 5]: 4.80 g/mouse
72-h food intake [2, 6]: 6.10 g/mouse
72-h food intake [2, 7]: 5.70 g/mouse
Fasting blood glucose (mmol/L) before the last administration ([3]; 10 nmol/kg s.c. daily): 4.68 ± 2.12 mmol/L
Blood glucose level (mmol/L) 0.5 h after glucose loading ([3]; 10 nmol/kg s.c. daily): 7.12 ± 0.61**^Δ mmol/L
Glycemic load reduction rate ([3]; 10 nmol/kg s.c. daily): 32.32
Reduction rate of weight without fasting on day 21 compared to day 0 ([3]; 10 nmol/kg s.c. every day): 17.56%
Fasting blood glucose (mmol/L) before the last administration ([3]; 30 nmol/kg s.c. daily): 5.02 ± 2.34 mmol/L
Blood glucose level (mmol/L) 0.5 h after glucose loading ([3]; 30 nmol/kg s.c. daily): 7.48 ± 0.78 mmol/L
Glycemic load reduction rate ([3]; 30 nmol/kg s.c. daily): 28.90
Reduction rate of weight without fasting on day 21 compared to day 0 ([3]; 30 nmol/kg s.c. every day): 19.92%

CCCCCCCCCCCCCCCC(=O)N[C@@H](CCC(=O)N[C@@H](CCC(=O)NCCCC[C@H](NC(=O)[C@H](C)NC(=O)[C@H](C)NC(=O)[C@H](CCCNC(=N)N)NC(=O)[C@H](CCC(=O)O)NC(=O)[C@H](CCC(=O)O)NC(=O)[C@H](CC(C)C)NC(=O)[C@H](Cc1ccc(O)cc1)NC(=O)[C@H](CCCCN)NC(=O)[C@H](CO)NC(=O)[C@H](Cc1ccc(O)cc1)NC(=O)[C@H](CC(=O)O)NC(=O)[C@H](CO)NC(=O)[C@@H](NC(=O)[C@H](Cc1ccccc1)NC(=O)[C@@H](NC(=O)CNC(=O)[C@H](CCC(N)=O)NC(=O)C(C)(C)NC(=O)[C@@H](N)Cc1c[nH]cn1)[C@@H](C)O)[C@@H](C)O)C(=O)N[C@@H](CCC(=O)O)C(=O)N[C@@H](Cc1ccccc1)C(=O)N[C@H](C(=O)N[C@@H](C)C(=O)N[C@@H](Cc1c[nH]c2ccccc12)C(=O)N[C@@H](CC(C)C)C(=O)N[C@@H](CCC(=O)O)C(=O)N[C@@H](C)C(=O)NCC(=O)NCC(N)=O)[C@@H](C)CC)C(=O)O)C(=O)O [dgc005] (HELM PEPTIDE1{H.[Aib].Q.G.T.F.T.S.D.Y.S.K.Y.L.E.E.R.A.A.K.E.F.I.A.W.L.E.A.G.G.[am]}|PEPTIDE2{[CCCCCCCCCCCCCCCC(=O)[*:2]].[gGlu].[gGlu]}$PEPTIDE1,PEPTIDE2,20:R3-3:R2$$$V2.0; N-terminus assumed)
EC50 (GLP-1R): 0.484 nM
EC50 (GCGR): 1.16 nM
Blood glucose reduction rate (%) [1]: 60.59%
Blood glucose level after glucose loading [1]: 6.70 ± 1.88**^ mmol/L
Inhibition of the rise of blood glucose after glucose loading (in words) [1]: equivalent to that of the positive control drug
Fasting blood glucose level [1]: 3.96 ± 0.62 mmol/L
Fasting blood glucose (mmol/L) before the last administration ([2]; 30 nmol/kg s.c. daily, 23 days): 4.60 ± 0.34 mmol/L
Weight decreasing rate [2]: 27%
Effect on total cholesterol (in words) ([2]; 23 days, 30 nmol/kg s.c. daily): reduced total cholesterol (TC) in a certain extent
Effect on triglycerides (in words) ([2]; 23 days, 30 nmol/kg s.c. daily): significantly reduce triglycerides (TGs)
Examination of liver pathological section ([2]; 23 days, 30 nmol/kg s.c. daily): no obvious pathological changes are seen in portal areas and interstitium
TC (total cholesterol) ([2]; 30 nmol/kg s.c. daily): 3.07 ± 0.50 mmol/L
TG (triglycerides) ([2]; 30 nmol/kg s.c. daily): 0.58 ± 0.10**^#ΔΔ mmol/L
72-h food intake [2, 4]: 2.50 g/mouse
72-h food intake [2, 5]: 3.80 g/mouse
72-h food intake [2, 6]: 4.20 g/mouse
72-h food intake [2, 7]: 4.60 g/mouse
Fasting blood glucose (mmol/L) before the last administration ([3]; 10 nmol/kg s.c. daily): 5.34 ± 1.20 mmol/L
Blood glucose level (mmol/L) 0.5 h after glucose loading ([3]; 10 nmol/kg s.c. daily): 7.52 ± 0.77 mmol/L
Glycemic load reduction rate ([3]; 10 nmol/kg s.c. daily): 28.52
Reduction rate of weight without fasting on day 21 compared to day 0 ([3]; 10 nmol/kg s.c. every day): 18.41%
Fasting blood glucose (mmol/L) before the last administration ([3]; 30 nmol/kg s.c. daily): 4.22 ± 2.13 mmol/L
Blood glucose level (mmol/L) 0.5 h after glucose loading ([3]; 30 nmol/kg s.c. daily): 7.82 ± 1.09 mmol/L
Glycemic load reduction rate ([3]; 30 nmol/kg s.c. daily): 25.66
Reduction rate of weight without fasting on day 21 compared to day 0 ([3]; 30 nmol/kg s.c. every day): 21.39%
